Experimental findings from patent US5733913A, “6-Aryl pyrido[2,3-d] pyrimidines and naphthyridines for inhibiting protein tyrosine kinase mediated cellular proliferation” (priority 1995, dated 1998) are described below.

In general, IC50 refers to the concentration that inhibits the measured activity by half. Broadly, the inhibition is the percentage by which the read-out fell short of the control.

Assay [1] has as its target T1, C-src kinase (Homo sapiens, UniProt P12931).
T1 construct: made in house; host or cells: baculovirus-infected insect cells
The assay is described as follows: C-src kinase assay. In kind it is biochemical. As to conditions: for IC50: read-out: Inhibition of Protein Tyrosine Kinases, C-src, IC50; for inhibition at 50 µM: read-out: Inhibition of Protein Tyrosine Kinases, C-src, % Inhibition. In a few lines: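 Baculovirus-expressed c-src immunopurified on antibody-coated latex beads, assayed in 40 mM Tris pH 7.5, 5 mM MgCl2 with poly GluTyr substrate and 5 μM ATP plus 32P-ATP. Reaction 10 min at room temperature, TCA-quenched, filtered; incorporated label counted by scintillation.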

The target of assay [2] is T2, human FGF-1 (flg) receptor tyrosine kinase (Homo sapiens, UniProt P11362).
T2 construct: a fragment of DNA that codes for the intracellular tyrosine kinase domain; made in house; host or cells: Sf9 insect cells (baculovirus), cell lysate
T2 sequence (P11362 478-767 limits assumed): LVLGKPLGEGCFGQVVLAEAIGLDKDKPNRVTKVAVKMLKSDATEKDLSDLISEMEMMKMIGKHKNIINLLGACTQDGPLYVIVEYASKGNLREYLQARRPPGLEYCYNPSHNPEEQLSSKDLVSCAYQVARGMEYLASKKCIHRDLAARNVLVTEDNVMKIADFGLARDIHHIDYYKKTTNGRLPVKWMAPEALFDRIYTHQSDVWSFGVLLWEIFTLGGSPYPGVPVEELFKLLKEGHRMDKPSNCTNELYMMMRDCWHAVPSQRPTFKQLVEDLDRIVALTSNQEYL
The assay is described as follows: FGF receptor tyrosine kinase assay. As to conditions: for IC50: read-out: Inhibition of Protein Tyrosine Kinases, FGF, IC50. In kind it is biochemical. The essentials: (§1)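 Intracellular kinase domains expressed in baculovirus-infected SF9 cells; crude lysate used as enzyme. Inhibitor preincubated 10 min at 25 °C with lysate in pH 7.0 Hepes buffer with 10 mM MnCl2 and poly(Glu-Tyr) 4:1, then γ-32P-ATP (50 μM ATP) added for 10 min at 25 °C. TCA-precipitated 32P on filters counted, no-enzyme background subtracted.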

The test system of assay [3] is PDGF receptor. The assay is described as follows: PDGF receptor autophosphorylation in RASMC. In kind it is cell-based, rat. As to conditions: PDGF-BB 30 ng/mL, read-out: Inhibition of PDGF Stimulated Receptor Auto Phosphorylation (IC50).
Protocol: Rat aorta smooth muscle cells (RASMC) were isolated from the thoracic aorta of rats and explanted according to the method of Ross, J. Cell. […] Cells were grown in Dulbecco's modified Eagle's medium (DMEM, Gibco) containing 10% fetal calf serum (FBS, Hyclone, Logan, Utah), 1% glutamine (Gibco) and 1% penicillin/streptomycin (Gibco). Cells were identified as smooth muscle cells by their "hill and valley" growth pattern and by fluorescent staining with a monoclonal antibody specific for SMC μ-actin (Sigma). RASMC were used between passages 5 and 20 for all experiments. Test compounds were prepared in dimethylsulfoxide (DMSO) in order to achieve consistency in the vehicle and to ensure compound solubility. Appropriate DMSO controls were simultaneously evaluated with the test compounds.
PDGF Receptor Autophosphorylation
RASMC were grown to confluency in 100 mm dishes. Growth medium was removed and replaced with serum-free medium and cells were incubated at 37° C. for an additional 24 hours. Test compounds were then added directly to the medium and cells incubated for an additional 2 hours. After 2 hours, PDGF-BB was added at a final concentration of 30 ng/mL for 5 minutes at 37° C. to stimulated autophosphorylation of the PDGF receptor. Following growth factor treatment, the medium was removed, and cells were washed with cold phosphate-buffered saline and immediately lysed with 1 mL of lysis buffer (50 mM HEPES[pH 7.5], 150 mM NaCl, 10% glycerol, 1% Triton X-100, 1 mM EDTA, 1 mMEGTA, 50 mM NaF, 1 mM sodium orthovanadate, 30 mM p-nitrophenyl phosphate, 10 mM sodium pyrophosphate, 1 mM phenylmethyl sulfonyl fluoride, 10 μg/mL aprotinin, and 10 μg/mL leupeptin). Lysates were centrifuged at 10,000×g for 10 minutes. […] Following the incubation, protein-A-sepharose beads were added for 2 hours with continuous mixing, and immune complexes bound to the beads washed 4 times with 1 mL lysis wash buffer. Immune complexes were solubilized in 30 μL of Laemmli sample buffer and electrophoresed in 4-20% SDS polyacrylamide gels. Following electrophoresis, separated proteins were transferred to nitrocellulose and immunoblotted with anti-phosphotyrosine antiserum. […] IC50 values were generated from the densitometric data.
Assay [4] concerns the target T3, mouse PDGF-β receptor tyrosine kinase (Mus musculus, UniProt P05622).
T3 construct: a fragment of DNA that codes for the intracellular tyrosine kinase domain; made in house; host or cells: Sf9 insect cells (baculovirus), cell lysate
The assay is described as follows: PDGF receptor tyrosine kinase assay. The assay is classed as biochemical. As to conditions: for IC50: read-out: Inhibition of Protein Tyrosine Kinases, PDGF, IC50; for inhibition at 50 µM: read-out: Inhibition of Protein Tyrosine Kinases, PDGF, % Inhibition. In a few lines:
as §1

Assay [5] deals with V-src kinase. The assay is described as follows: V-src kinase assay. In kind it is biochemical. As to conditions: at 50 μM. On the procedure: V-src and C-src Kinase Assays
V-src or C-src kinase is purified from baculovirus infected insect cell lysates using an antipeptide monoclonal antibody directed against the N-terminal 2-17 amino acids. The antibody, covalently linked to 0.65-μm latex beads, is added to a suspension of insect cell lysis buffer comprised of 150 mM NaCl, 50 mM Tris pH 7.5, 1 mM DTT, 1% NP-40, 2 mM EGTA, 1 mM sodium vanadate, 1 mM PMSF, 1 μg/mL each of leupeptin, pepstatin, and aprotinin. Insect cell lysate containing either the c-src or v-src protein is incubated with these beads for 3-4 hours at 4° C. with rotation. At the end of the lysate incubation, the beads are rinsed 3 times in lysis buffer, resuspended in lysis buffer containing 10% glycerol, and frozen. These latex beads are thawed, rinsed three times in assay buffer which is comprised of 40 mM tris pH 7.5, 5 mM MgCl2, and suspended in the same buffer. In a Millipore 96-well plate with a 0.65 μm polyvinylidine membrane bottom are added the reaction components: 10-μL v-src or c-src beads, 10 μL of 2.5 mg/mL poly GluTyr substrate, 5 μM ATP containing 0.2 μCi labeled ^32 P-ATP, 5μL DMSO containing inhibitors or as a solvent control, and buffer to make the final volume 125 μL. The reaction is started at room temperature by addition of the ATP and quenched 10 minutes later by the addition of 125 μL of 30% TCA, 0.1M sodium pyrophosphate for 5 minutes on ice. The plate is then filtered and the wells washed with two 250-μL aliquots of 15% TCA, 0.1M pyrophosphate. The filters are punched, counted in a liquid scintillation counter, and the data examined for inhibitory activity in comparison to a known inhibitor such as erbstatin. The method is described more fully in J. Med. Chem., 37:598-609 (1994).

T3 sequence (P05622 599-961 limits assumed): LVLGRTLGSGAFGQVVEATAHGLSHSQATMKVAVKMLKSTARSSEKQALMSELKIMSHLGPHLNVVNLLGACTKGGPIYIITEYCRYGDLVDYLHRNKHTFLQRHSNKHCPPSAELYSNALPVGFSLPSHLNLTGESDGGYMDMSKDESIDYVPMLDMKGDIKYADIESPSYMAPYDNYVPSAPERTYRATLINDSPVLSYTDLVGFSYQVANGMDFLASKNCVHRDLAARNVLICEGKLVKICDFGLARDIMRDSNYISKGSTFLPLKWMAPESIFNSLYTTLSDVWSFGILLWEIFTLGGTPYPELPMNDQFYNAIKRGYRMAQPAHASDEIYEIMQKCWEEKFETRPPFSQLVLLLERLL
T1 sequence (P12931 whole entry): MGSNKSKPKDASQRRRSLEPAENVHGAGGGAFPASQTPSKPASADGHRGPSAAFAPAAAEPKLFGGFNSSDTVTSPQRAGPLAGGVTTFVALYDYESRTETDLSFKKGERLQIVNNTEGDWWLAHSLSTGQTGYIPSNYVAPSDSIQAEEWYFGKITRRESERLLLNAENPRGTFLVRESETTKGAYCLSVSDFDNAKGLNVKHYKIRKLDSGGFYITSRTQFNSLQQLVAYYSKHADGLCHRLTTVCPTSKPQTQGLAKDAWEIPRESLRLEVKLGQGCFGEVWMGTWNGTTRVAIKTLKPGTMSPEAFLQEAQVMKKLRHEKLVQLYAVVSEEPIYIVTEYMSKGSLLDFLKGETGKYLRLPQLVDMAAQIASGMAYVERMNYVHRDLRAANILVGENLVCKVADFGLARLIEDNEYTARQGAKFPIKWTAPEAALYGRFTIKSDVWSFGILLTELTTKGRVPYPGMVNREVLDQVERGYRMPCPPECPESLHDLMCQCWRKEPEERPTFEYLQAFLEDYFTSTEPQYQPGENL

With `CCNC(=O)Nc1nc2nc(NCCN(CC)CC)ncc2cc1-c1c(Cl)cccc1Cl` [Example 67, 1-[6-(2,6-Dichlorophenyl)-2-(2-diethylamino-ethyl-amino)-pyrido[2,3-d]pyrimidin-7-yl]-3-ethyl-urea], the IC50 is 1560 nM in assay [1], 1390 nM in assay [2] and 9420 nM in assay [3].

As for `CN(C)CCCNc1ncc2cc(-c3c(Cl)cccc3Cl)c(NC(=O)NC(C)(C)C)nc2n1` [Example 28, 1-tert-Butyl-3-[6-(2,6-dichlorophenyl)-2-(3-dimethylamino-propylamino)-pyrido[2,3-d]pyrimidin-7-yl]-urea], the IC50 in assay [1] is 117 nM; in assay [2], 75 nM; in assay [3] it was 1380 nM; in assay [4] it was 676 nM.

As to `CC(C)(C)NC(=O)Nc1nc2nc(NCCCN3CCOCC3)ncc2cc1-c1c(Cl)cccc1Cl` [Example 59, 1-tert-Butyl-3-[6-(2,6-dichlorophenyl)-2-(3-morpholin-4-yl-propylamino)-pyrido[2,3-d]pyrimidin-7-yl]-urea], the IC50 was found to be 85 nM in assay [1], 72 nM in assay [2], 1190 nM in assay [3] and 838 nM in assay [4].

Take `CCNC(=O)Nc1nc2nc(NCCCN(CC)CC)ncc2cc1-c1c(C)cccc1C` [Example 115]: the IC50 was 24 nM in assay [1], 1240 nM in assay [2], 5130 nM in assay [3] and 2630 nM in assay [4].

Take `COc1ccccc1-c1cc2cnc(N)nc2nc1N` [Example 100, 6-(2-Methoxy-phenyl)-pyrido[2,3-d]pyrimidine-2,7-diamine]: the inhibition at 50 µM in assay [1] amounted to 46.6%; in assay [2] (at 50 μM, read-out: Inhibition of Protein Tyrosine Kinases, FGF, % Inhibition), 27.1%; in assay [4], 22.3%. For the same compound, the “Inhibition of Protein Tyrosine Kinases, V-src, % Inhibition” value (shortened to “Inhibition … % Inhibition”) in assay [5] came to 6.0%.

In the case of `CCN(CC)CCCNc1ncc2cc(-c3c(C)cccc3C)c(NC(=O)NC(C)(C)C)nc2n1` [Example 116, 1-tert-Butyl-3-[2-(3-diethylamino-propylamino)-6-(2,6-dimethyl-phenyl)-pyrido[2,3-d]pyrimidin-7-yl]-urea], the IC50 came to 98 nM in assay [1], 335 nM in assay [2], 910 nM in assay [3] and 804 nM in assay [4].

For `CCN(CC)CCCNc1ncc2cc(-c3c(Cl)cccc3Cl)c(NC(=O)NC(C)C)nc2n1` [Example 113, 1-[6-(2,6-Dichlorophenyl)-2-(3-diethylamino-propyl-amino)-pyrido[2,3-d]pyrimidin-7-yl]-3-isopropyl-urea], the IC50 in assay [1] was 78 nM; in assay [2], 77 nM; in assay [3], 1100 nM; in assay [4], 1090 nM.

`CN(C)CCCN(C)c1ncc2cc(-c3c(Cl)cccc3Cl)c(NC(=O)NC(C)(C)C)nc2n1` [Example 69, 1-tert-Butyl-3-{6-(2,6-dichlorophenyl)-2-[(3-dimethyl-amino-propyl)-methyl-amino]-pyrido[2,3-d]pyrimidin-7-yl}-urea]: the IC50 in assay [1] came to 4660 nM; in assay [2], 1960 nM; in assay [3], 6460 nM; in assay [4] it was 15600 nM.

With `CN1CCN(CCCNc2ncc3cc(-c4c(Cl)cccc4Cl)c(NC(=O)Nc4ccccc4)nc3n2)CC1` [Example 51, 1-{6-(2,6-Dichlorophenyl)-2-[3-(4-methyl-piperazin-1-yl)-propylamino]-pyrido[2,3-d]pyrimidin-7-yl}-3-phenyl-urea], the IC50 in assay [1] is 100 nM; in assay [2], 84 nM; in assay [3], 365 nM; in assay [4] it was 573 nM.

`CCN(CC)CCCNc1ncc2cc(-c3c(Cl)cccc3Cl)c(N)nc2n1` [Example 20, 7-Amino-6-(2,6-dichlorophenyl)-2-(3-diethylamino-propylamino)-pyrido[2,3-d]pyrimidine]: the concentration for half-maximal inhibition (IC50) in assay [1] was 748 nM; in assay [2], 2380 nM; in assay [4], 46100 nM. In addition, the “Inhibition … % Inhibition” value in assay [5] is reported as 51.7%.

Consider `Nc1ncc2cc(-c3cccc(Cl)c3Cl)c(N)nc2n1` [Example 83, 6-(2,3-Dichlorophenyl)-pyrido[2,3-d]pyrimidine-2,7-diamine], for which the inhibition at 50 µM in assay [1] was 53.6%. The IC50 in assay [2] came to 1980 nM; in assay [4], 42500 nM. Also, in assay [5], the “Inhibition … % Inhibition” value is -9.8%.

As to `CCN(CC)CCNc1ncc2cc(-c3c(Cl)cccc3Cl)c(NC(=O)NC(C)(C)C)nc2n1` [Example 66, 1-tert-Butyl-3-[6-(2,6-dichlorophenyl)-2-(2-diethyl-amino-ethylamino)-pyrido[2,3-d]pyrimidin-7-yl]-urea], the IC50 in assay [1] worked out at 3420 nM; in assay [2] it was 1280 nM; in assay [3], 5290 nM; in assay [4] it was 5190 nM.

Take `CC(C)NC(=O)Nc1nc2nc(N)ncc2cc1-c1c(Cl)cccc1Cl` [Example 89, 1-[2-Amino-6-(2,6-dichlorophenyl)-pyrido[2,3-d]pyrimidin-7-yl]-3-isopropyl-urea]: the IC50 in assay [1] amounted to 36 nM; in assay [2] it was 111 nM; in assay [3], 1630 nM; in assay [4], 857 nM.

Turning to `CCNC(=O)Nc1nc2nc(NCCCN(CC)CC)ncc2cc1-c1c(Cl)cccc1Cl` [Example 112, 1-[6-(2,6-Dichlorophenyl)-2-(3-diethylamino-propyl-amino)-pyrido[2,3-d]pyrimidin-7-yl]-3-ethyl-urea], the IC50 in assay [1] worked out at 77 nM; in assay [2], 128 nM; in assay [3] it was 1080 nM; in assay [4], 1260 nM.

For the compound `Cc1cccc(-c2cc3cnc(N)nc3nc2N)c1C` [Example 92, 6-(2,3-Dimethyl-phenyl)-pyrido[2,3-d]pyrimidine-2,7-diamine], the inhibition at 50 µM in assay [1] was 44.5%; in assay [4] it was 33.1%. Further, the IC50 in assay [2] was 2010 nM. For the same compound, the “Inhibition … % Inhibition” value in assay [5] is -10.1%.

Take `COc1cccc(-c2cc3cnc(N)nc3nc2N)c1` [Example 102, 6-(3-Methoxy-phenyl)-pyrido[2,3-d]pyrimidine-2,7-diamine]: the figures for the inhibition at 50 µM in assay [1] and in assay [4] were 0.8% and 44.4%, respectively. The IC50 in assay [2] was 3110 nM. Besides, the “Inhibition … % Inhibition” value in assay [5] is reported as -8.2%.

On to `CCN(CC)CCCNc1ncc2cc(-c3c(C)cccc3C)c(N)nc2n1` [Example 114, N^2-(3-Diethylamino-propyl)-6-(2,6-dimethyl-phenyl)-pyrido[2,3-d]pyrimidine-2,7-diamine], for which the IC50 in assay [2] came out at 19200 nM; in assay [3], 15900 nM; in assay [4] it was 23900 nM.
